Reference: patent US8901035B2, “Herbicidal compositions comprising 4-amino-3-chloro-5-fluoro-6-(4-chloro-2-fluoro-3-methoxyphenyl) pyridine-2-carboxylic acid or a derivative thereof and cellulose biosynthesis inhibitor herbicides” (Dow AgroSciences LLC, priority 2012, dated 2014)

Experiments:
Assay type in all cases: in vivo
[1] = tested on: Digitaria sanguinalis (L.) Scop. (DIGSA); test: Postemergence foliar-applied herbicidal mixtures, weed control in direct seeded rice (greenhouse)
Source text: (§1) Seeds or nutlets of the desired test plant species were planted in a soil matrix prepared by mixing a loam or sandy loam soil (e.g., 28.6 percent silt, 18.8 percent clay, and 52.6 percent sand, with a pH of about 5.8 and an organic matter content of about 1.8 percent) and calcareous grit in an 80 to 20 ratio. The soil matrix was contained in plastic pots with a volume of 1 quart and a surface area of 83.6 square centimeters (cm^2). When required to ensure good germination and healthy plants, a fungicide treatment and/or other chemical or physical treatment was applied. The plants were grown for 8-22 days in a greenhouse with an approximate 14 h photoperiod which was maintained at about 29° C. during the day and 26° C. during the night. Nutrients (Peters Excel® 15-5-15 5-Ca 2-Mg and iron chelate) were applied in the irrigation solution as needed and water was added on a regular basis. Supplemental lighting was provided with overhead metal halide 1000-Watt lamps as necessary. The plants were employed for testing when they reached the first through fourth true leaf stage.
(§2) Treatments consisted of the acid or esters of 4-amino-3-chloro-5-fluoro-6-(4-chloro-2-fluoro-3-methoxy-phenyl) pyridine-2-carboxylic acid (Compound A), each formulated as an SC (suspension concentrate), and various herbicidal components alone and in combination. Forms of compound A were applied on an acid equivalent basis.
(§3) Other herbicidal components were applied on an active ingredient basis and included cellulose biosynthesis-inhibiting (CBI) herbicides isoxaben formulated as Gallery® 75DF and indaziflam formulated as Specticle® 20WSP.
(§4) Treatment requirements were calculated based upon the rates being tested, the concentration of active ingredient or acid equivalent in the formulation, and a 12 mL application volume at a rate of 187 L/ha.
(§5) For treatments comprised of formulated compounds, measured amounts of compounds were placed individually in 25 mL glass vials and diluted in a volume of 1.25% (v/v) Agri-Dex® crop oil concentrated to obtain 12× stock solutions. […] Application solutions were prepared by adding an appropriate amount of each stock solution (e.g., 1 mL) and diluted to the appropriate final concentrations with the addition of 10 mL of an aqueous mixture of 1.25% (v/v) crop oil concentrate so that the final spray solutions contained 1.25+/−0.05% (v/v) crop oil concentrate.
(§6) All stock solutions and applications solutions were visually inspected for compound compatibility prior to application. Spray solutions were applied to the plant material with an overhead Mandel track sprayer equipped with a 8002E nozzles calibrated to deliver 187 L/ha over an application area of 0.503 m^2 at a spray height of 18 to 20 inches (46 to 50 cm) above average plant canopy height. Control plants were sprayed in the same manner with the solvent blank.
(§7) The treated plants and control plants were placed in a greenhouse as described above and watered by sub-irrigation to prevent wash-off of the test compounds. After approximately 3 weeks, the condition of the test plants as compared with that of the untreated plants was determined visually and scored on a scale of 0 to 100 percent where 0 corresponds to no injury or growth inhibition and 100 corresponds to complete kill.
(§8) Colby's equation was used to determine the herbicidal effects expected from the mixtures (Colby, S. R. 1967. Calculation of the synergistic and antagonistic response of herbicide combinations. Weeds 15:20-22).
(§9) The following equation was used to calculate the expected activity of mixtures containing two active ingredients, A and B: Expected=A+B−(A×B/100)
(§10) A=observed efficacy of active ingredient A at the same concentration as used in the mixture.
(§11) B=observed efficacy of active ingredient B at the same concentration as used in the mixture.

[2] = tested on: Brachiaria platyphylla (Griseb.) Nash or Urochloa platyphylla (Nash) R.D. Webster (BRAPP); test: as above
Source text: as §1, §2, §3, §4, §5, §6, §7, §8, §9, §10, §11

Cyperus iria L. (CYPIR) = test: as above
Source text: as §1, §2, §3, §4, §5, §6, §7, §8, §9, §10, §11

[3] = tested on: Leptochloa chinensis (L.) Nees (LEFCH); test: as above
Source text: as §1, §2, §3, §4, §5, §6, §7, §8, §9, §10, §11

[4] = tested on: Ipomoea hederacea Jacq. (IPOHE); test: as above
Source text: as §1, §2, §3, §4, §5, §6, §7, §8, §9, §10, §11

[5] = tested on: Xanthium strumarium L. (XANST); test: Pre-emergence soil-applied herbicidal mixtures for weed control (greenhouse)
Source text: Seeds or nutlets of the desired test plant species were planted in a soil matrix prepared by mixing a loam soil (e.g., 32 percent silt, 23 percent clay, and 45 percent sand, with a pH of about 6.5 and an organic matter content of about 1.9 percent) and calcareous grit in an 80 to 20 ratio. The soil matrix was contained in plastic pots with a volume of 1 quart and a surface area of 83.6 square centimeters (cm^2).
Treatments consisted of the benzyl ester of 4-amino-3-chloro-5-fluoro-6-(4-chloro-2-fluoro-3-methoxy-phenyl)pyridine-2-carboxylic acid (compound A) formulated as an SC (suspension concentrate) and various herbicidal components alone and in combination. Forms of compound A were applied on an acid equivalent basis.
Other herbicidal components were applied on an acid equivalent or active ingredient basis and included the cellulose biosynthesis inhibiting herbicides, isoxaben formulated as Gallery® 75DF and indaziflam formulated as Specticle® 20WSP.
as §4
as §5, with “oil concentrate (COC)” for “oil concentrated”, “(v/v) COC” for “(v/v) crop oil concentrate”, “contained 1.25%” for “contained 1.25+/−0.05%”, “(v/v) COC.” for “(v/v) crop oil concentrate.”
as §6, with “soil” for “plant material”, “18” for “18 to 20”, “(46” for “(46 to 50”, “pot” for “plant canopy”, “pots” for “plants”
The treated and control pots were placed in a greenhouse and top watered as needed. When required to ensure good germination and healthy plants, a fungicide treatment and/or other chemical or physical treatment was applied. The pots were maintained in a greenhouse with an approximate 14 hr. photoperiod which was maintained at about 29° C. during the day and 26° C. during the night. Nutrients (Peters® Excel 15-5-15 5-Ca 2-Mg) were applied in the irrigation solution as needed and water was added on a regular basis. Supplemental lighting was provided with overhead metal halide 1000-Watt lamps as necessary. After approximately 4 weeks, the condition of the test plants as compared with that of the untreated plants was determined visually and scored on a scale of 0 to 100 percent where 0 corresponds to no injury or growth inhibition and 100 corresponds to complete kill.
as §8, §9, §10, §11

[6] = Compound A Benzyl Ester 4.38 g ae/ha alone
[7] = Compound A Benzyl Ester 8.75 g ae/ha alone
[8] = Compound A Benzyl Ester 17.5 g ae/ha alone

CCC(C)(CC)c1cc(NC(=O)c2c(OC)cccc2OC)on1 [Isoxaben, N-[3-(1-ethyl-1-methylpropyl)-5-isoxazolyl]-2,6-dimethoxybenzamide, reference compound]
Visual Weed Control (%) - 20 DAA Obs ([1]; Isoxaben 280 g ai/ha alone): 10%
Visual Weed Control (%) - 20 DAA Obs ([1]; Isoxaben 560 g ai/ha alone): 20%
Visual Weed Control (%) - 20 DAA Obs ([2]; Isoxaben 140 g ai/ha alone): 0%
Visual Weed Control (%) - 20 DAA Obs ([2]; Isoxaben 280 g ai/ha alone): 0%
Visual Weed Control (%) - 20 DAA Obs ([2]; Isoxaben 560 g ai/ha alone): 20%
Visual Weed Control (%) - 20 DAA Obs (Cyperus iria L. (CYPIR); Isoxaben 140 g ai/ha alone): 10%
Visual Weed Control (%) - 20 DAA Obs (Cyperus iria L. (CYPIR); Isoxaben 280 g ai/ha alone): 60%
Visual Weed Control (%) - 20 DAA Obs (Cyperus iria L. (CYPIR); Isoxaben 560 g ai/ha alone): 50%
Visual Weed Control (%) - 20 DAA Obs ([3]; Isoxaben 140 g ai/ha alone): 0%
Visual Weed Control (%) - 20 DAA Obs ([3]; Isoxaben 280 g ai/ha alone): 0%
Visual Weed Control (%) - 20 DAA Obs ([4]; Isoxaben 140 g ai/ha alone): 15%
Visual Weed Control (%) - 20 DAA Obs ([4]; Isoxaben 280 g ai/ha alone): 25%

COc1c(Cl)ccc(-c2nc(C(=O)OCc3ccccc3)c(Cl)c(N)c2F)c1F [Compound A Benzyl Ester, benzyl ester of 4-amino-3-chloro-5-fluoro-6-(4-chloro-2-fluoro-3-methoxy-phenyl)pyridine-2-carboxylic acid]
Visual Weed Control (%) - 21 DAA Obs [1, 6]: 10%
Visual Weed Control (%) - 20 DAA Obs [1, 7]: 30%
Visual Weed Control (%) - 21 DAA Obs [1, 7]: 45%
Visual Weed Control (%) - 20 DAA Obs [1, 8]: 30%
Visual Weed Control (%) - 21 DAA Obs [1, 8]: 70%
Visual Weed Control (%) - 20 DAA Obs [2, 6]: 70%
Visual Weed Control (%) - 20 DAA Obs [2, 7]: 80%
Visual Weed Control (%) - 20 DAA Obs [2, 8]: 90%
Visual Weed Control (%) - 20 DAA Obs (Cyperus iria L. (CYPIR); [6]): 70%
Visual Weed Control (%) - 21 DAA Obs [3, 6]: 30%
Visual Weed Control (%) - 21 DAA Obs [3, 7]: 35%
Visual Weed Control (%) - 21 DAA Obs [3, 8]: 35%
Visual Weed Control (%) - 20 DAA Obs [4, 6]: 10%
Visual Weed Control (%) - 20 DAA Obs [4, 7]: 10%
Visual Weed Control (%) - 20 DAA Obs [4, 8]: 15%
Visual Weed Control (%) - 28 DAA XANST Obs ([5]; Compound A Benzyl Ester 16 g ae/ha alone): 0%
Visual Weed Control (%) - 28 DAA XANST Obs ([5]; Compound A Benzyl Ester 32 g ae/ha alone): 5%
